Laboratory results taken from patent publication EP0374267A1, “DERIVATIVES OF PLATINUM (P) WITH A POLYANION OF DEOXYRIBONUCLEIC ACID, METHOD FOR OBTAINING THEM AND PHARMACEUTICAL ANTITUMOR PREPARATION BASED ON THEM” (priority 1988, dated 1989).

Legend:
[1] = pH of a solution in citrate-salt solution (potentiometric); assay type: physicochemical; conditions: 0,015 g (II: 0,018 g) in 1000 ml Zitrat-Salz-Lösung, 20°C
Procedure: Die erfindung sgemässe Verbindung, Poly{hexakis-[Chloroammindiaquaplatin (II)]} - µ - desoxyribonukleat fol- ^gender Formel: [drawing 3] worin n = 1900±90, m = bn,- DNS = (̵C39H49O32N15P4)̵n ..., verliert bei Erhitzung innerhalb von IO Stunden bei einer Temperatur von I80 bis 200°C alle Wassermoleküle. Der Stoff lässt sich schlecht in Wasser, Methanol, Athanol auflösen, er ist nichthygroskopisch. Seine Löslichkeit in wasser bei einer Temperatur von 20°C beträgt 0,002%. Eine Lösung von 0,015 g des beanspruchten Stoffes in I000 ml einer Zitrat-Salz-Lösung (0,015 Mol NaCl + 0,0015 Mol Natriumzitrat) bei einer Temperatur von 20°C hat einen pH-Wert von 5,42 (pH- potentiometrisch).

humorale Immunität = assay: Humoral immunity in tumour-bearing rats immunised with sheep erythrocytes; assay type: in vivo, Ratten der Wistar-Linie; conditions: treated tumour bearers, 4 days after immunisation
Text: Der Einfluss auf die homorale Immunität (Antiteloge- nese)- bewertete man nach der Menge von antikörperbildenden Zellen in der Milz und nach dem Titer von Agglutininen und Hämolysinen im Blütserum.
Der Einfluss der beansprucheen Stoffe auf die humorale Immunität wurde auch im Vergleich zum CDDP und zur DNS untersucht. Dafür wurden Ratten,Tumorträger der Shvetz-Erythromyelose der Wistar-Linie eingesetzt, denen man ein Tumor subkutan in die Hüfte überimpfte. Am 4. Tag nach der Uberimpfung des Tumors begann man ihre Behandlung nach dem gleichen Schema wie auch bei der Untersuchung der zellulären Immunität. Am 8. Tag nach der Uberimpfung des Tumors führte man die Immunisierung der Tiere durch, indem man ihnen intraperitoneal Hammelerythrozyte in einer Dosis von 2.10^6 Zellen einführt. In 4. Tagen nach der Immunisierung tötete man die Tiere mittels Dekapitation unter Anwendung von Athernarkose und man ermittelte den Gehalt an antikörperbildenden Zellen in der Milz nach der Erne-Methode und die Agglutinine- und Hämolysine-Titer im periphärischen Blut mit bekanntnn Methoden.
Der Gehalt an antikörperbildenden Zellen ermittelte man, berechnet auf I0^6 Splenozyte und auf die Gesamtmasse der Milz. Dee Versuchergebnisse sind in der Tabelle 4 angeführt.

Solubility = assay type: physicochemical; conditions: 20°C
Shvetz-Erythromyelose = assay: Antineoplastic activity against transplanted Shvetz erythromyelosis in rats; assay type: in vivo, weissen rassenlosen Ratten; conditions: for Grad der Hemmung des Wachstums eines Tumors: i.p. 3x at 24 h intervals from day 4-6 after inoculation, dose I 17.1, II 17,1-27,3, III 27,3, CDDP 8,1, DNS 18,0 mg/kg
Text: Die erfindungsgemässen Verbindung weisen antineonlastische Aktivität in Verbindung mit einer immunomudulierenden Wirkung auf. Die beanspruchten Verbindungen und das erfindungsgemässe Arzneipräparat mit antineoplastischer Wirkung wurden in Versuchen an Tieren und in Kliniken an Menschen untersucht. Untersucht wurde ihre antineoplastische Aktivität gegenüber der überimnften Shvetz-Erythromyelose Die antineoplastische Aktivität jedes der angemeldeten Stoffe bewertete man nach den Ergebnissen der Versuche, die an weissen rassenlosen Ratten mit einem Gewicht von 150 bis 200 g (in Gruppen zu je 10 Tieren) angestellt wurden. Den Tieren wurden 2.10^8 - 2.10^10 Zellen des überimpften Stammes der Shvetz-Erythromyelose subkutan in die Hüfte inokuliert. Am 4. bis 6. Tag nach der Inokulation der Tumorzellen, das heisst in der Periode der logarythmischen Phase des Wachstums eines Tumors, begann man, den Tieren die erfindungsgemässen Verbindungen einzuführen. Die angemeldeten Verbindungen wurden intraperitoneal dreimal mit einem Zeitabstand von 24 stunden in Form von wässerigen Lösungen beziehungsweise wässerigen Suspensionen eingeführt.
Antineoplastische Wirkung der erfindung sgemässen Verbindungen wurde im Vergleich zur Kontrolle (ohne Anwendung der Präparate) und im Vergleich zu den CDDP- und DNS-Präparaten untersucht.
Die antineoplastische Aktivität bewertete man nach folgenden biologischen Kenndaten: Grad der Hemmung des Wachstums eines Tumors, der Uberlebenskraft von Tieren am 10. Tag nach der Inokulation vom Tumorzellen sowie der Lebensdauer von Tieren.

[2] = Acute toxicity, intraperitoneal, rats and mice (with histology of kidney and gut); assay type: in vivo, weissen rassenlosen Ratten; weissen nichtlinearen Mäusen; conditions: i.p. 3x at 2 h intervals, total dose
Text: Die Anzahl der krepierten Tiere in jeder Gruppe wurde alle 21 bis 48 Stunden registriert. In jeder Gruppe waren je 12 Tiere (6 Männchen und 6 Weibchen), die Versuche wurden zweimal wiederholt. Die Ergebnisse der Versuche sind in der Tabelle 2 angeführt.
Die krepierten Tiere wurden obduziert und man führte hystologische Untersuchungen der Nieren und des Darmes durch. Die Tiere, die die beanspruchten Stoffe in einer unter der toxischen Dosis liegenden Menge verabreicht bekamen, wurden in I4 Tagen getötet. Die inneren Organe derselben wurden der Autopsie ausgesetzt.

[3] = Antibody (agglutinin) titre in serum of intact mice immunised with sheep erythrocytes; assay type: in vivo, Mäuse-Linien CBA und C57Bl6
Text: Der Einfluss der beanspruchten Stoffe auf die Antitelogenese wurde auch an zwei gegensätzlich auf Hammelerythrozyte reagierenden Mäuse-Linien: CBA und C57Bl6 untersucht. Man verwendete Tiere mit einem Gewicht von 20+2 g, die einer Quarantäne innerhalb von mindestens 20 Tagen ausgesetzt wurden. […] In einer Stunde wurden die Tiere immunisiert, indem man ihnen intraperitoneal I0^8 Zellen der Hammelerythrozyte einführt..Am 7., 14. und 30. Tag tötete man die Tiere und ermittelte man den Gehalt an Agglutininen im Blutserum in an sich bekannter Weise. Die Ergebnisse wurden in Form lg2 der Antikörper-Titer ausgedrückt. Die Ergebnisse sind in der Tabelle 5 angeführt.

zelluläre Immunität = assay: Cellular immunity: rejection time of a skin allograft in tumour-bearing rats; assay type: in vivo, Männchenratten der Wistar-Linie; conditions: treated tumour bearers; i.p. 3x at 24 h; I 17,1, II 17,1, III 27,3, DNS 12,0, CDDP 8,1 mg/kg
Text: Der Einfluss auf die zelluläre Immunität bewertete man nach der Zeit der Abstossung eines Allotransplantats der Haut eines Tumorträgers.
Der Einfluss der beanspruchten Stoffe auf die zelluläre Immunität wurde an Männchenratten der Wistar-Linie mit einem Gewicht von 150 bis 200 g untersucht. Den Tieren wurde ein Hautlappen mit Abmessungen 2 x 3 cm^2 von den Ratten der August-Linie in die Rückengegend transplantiert. Dann wurden denselben Tieren subkutan 2.10^8 Zellen der Shvetz-Erythromyelose in die Hüfte inokuliert. Am 4. bis 6. […] Zum Vergleich verwendete man die DNS- und CDDP-Präparate, die amn in einer Salz-lösung nach dem gleichen'Schema in Dosen von 12,0 und 8,1 mg/kg einführte. Als Kontrolle dienten intakte Tiere. Die Zeit der Abstossung des Hautlappens fixierte man nach der Änderung seiner Temperatur, Farbe und Elastizität.

[4] = CDDP in combination with Vinblastin, Bleomycin, Aktinomycin und Prednisolon; cited from earlier work
[5] = test system: antikörperbildenden Zellen in der Milz; assay: Antibody-forming cells in the spleen of mice immunised with sheep erythrocytes; assay type: in vivo, Mäusen der CBA-Linien und C57Bl6-Linie; conditions: CBA and C57Bl6 mice, day 4; CDDP 8,1, DNS 6,0, compounds 13,6 mg/kg i.p.; numeric Table 6 is an image
Procedure: Es wurden Untersuchungen des Einflusses der bean - spruchten Stoffe im Vergleich zu den CDDP- und DNS-Präparaten auf die Bildung von antikörperbildenden Zellen in der Milz von zwei gegensätzlich auf die Hammelerythrozyte reagierenden Mäuse-Linien durchgeführt.
In I Stunde wurden die Tiere immunisiert, indem man ihnen intraperitoneal […] Zellen der Hammelerythrozyte einführte . Am 4. Tag ermittelte man die Anzahl der antikörperbildenden Zellen in der Milz der Tiere der Versuchs-und der Kontrollgruppe (ohne Einführung des Präparats). Der Gehalt an antikörperbildenden Zellen berechnete man auf […] Splenozyte und auf die ganze Milz. Die Ergebnisse der Untersuchungen sind in der Tagelle 6 dargestellt.

Row | Compound | pH-Wert [1] | Gehalt an antikörperbildenden Zellen je 10^6 Splenozyte (humorale Immunität) | Löslichkeit in Wasser (Solubility) | Grad der Hemmung des Wachstums eines Tumors (Shvetz-Erythromyelose) [%] | LDI00 ([2]; in Lösung) | LDI00 ([2]; in Suspension) | lg2 Antikörper-Titer ([3]; Linie der Mäuse C57Bl6, day 14) | Die Zeit der Abstossung (in Tagen) eines Hauptlappens (zelluläre Immunität) | increase of Uberlebenskraft von Tieren compared with CDDP (Shvetz-Erythromyelose; versus CDDP) [%] | LD50 ([2]; in Suspension) | lg2 Antikörper-Titer ([3]; Linie der Mäuse C57Bl6, day 30) | lg2 Antikörper-Titer ([3]; Linie der Mäuse CBA, day 14) | lg2 Antikörper-Titer ([3]; Linie der Mäuse CBA, day 30) | Effektivität der Behandlung einer Eierstockgeschwulst [4] [%] | Uberlebenskraft von Tieren (Shvetz-Erythromyelose; day 10 after inoculation of tumour cells, same doses as E1) [%] | lg2 Antikörper-Titer ([3]; Linie der Mäuse C57Bl6, day 7) | Gehalt an antikörperbildenden Zellen in der Milz [5] | LD50 ([2]; in Lösung) | lg2 Antikörper-Titer ([3]; Linie der Mäuse CBA, day 7, single i.p. dose (compounds 13,6, CDDP 8,1, DNS 6,0 mg/kg))
1 | Poly{hexakis-[Chloroammindiaquaplatin (II)]} - µ - desoxyribonukleat [Verbindung I] | 5,42 | 68,4±9,38 | 0,002% | 84 | 84,0 mg/kg | 84,0 mg/kg | 6,82±0,38 | – | – | – | – | – | – | – | – | – | – | – | –
2 | Poly{hexakis [chlor- amminaquaplatin(II)]} - µ - desoxyribonukleat [Verbindung III] | 5,44 | – | – | 95 | – | – | 6,68±0,29 | 6,5±0,5 Tagen | 20 | 82,5 mg/kg | 6,32±0,24 | 8,40±0,42 | 8,50±0,30 | – | – | – | – | – | –
3 | N.N.[Cl][Pt][Cl] [CDDP, cis-Dichlorodiaminplatin(II)] | – | 20,37±2,03 | – | 78 | – | – | – | – | – | – | – | – | – | 100 | 80 | 3,80±0,24 | senken | – | –
4 | Poly {bis[hydroxochloramminaquaplatin(II)] - tetrakis[chloroammindiaquaplatin(II)] - µ - desoxyribonukleat [Verbindung II] | > 5,38 | – | 0,0075% | 94 | – | – | – | 6,5±0,5 Tagen | – | 66,0 mg/kg | – | 7,60±0,32 | 6,40±0,42 | – | – | 6,60±0,32 | – | 66,0 mg/kg | 7,20±0,30
